Experimental data taken from patent US8835425B2, “Use of selective GABA A α5 negative allosteric modulators for the treatment of central nervous system conditions” (Hoffmann-La Roche Inc., priority 2010, dated 2014).
Where two headings read alike, the source gives them in different places.

Columns and labels:
[1] = tested on: Ts65Dn and control mice; assay: Sensorimotor test battery; format: in vivo; conditions: 20 mg/kg p.o. chronic; for Auditory startle / Equilibrium aluminium bar / Equilibrium wooden bar / Grip strength / Prehensile reflex / Righting reflex / Traction capacity / Vision: mean score; for effect on sensorimotor abilities: Ts65Dn or control mice
Description: (§1) For mice studies, active pharmaceutical compounds of present invention were formulated in chocolate-milk (Puleva, Barcelona, Spain). Active pharmaceutical compounds of present invention or vehicle were administered p.o. at a dose of 20 mg/kg for six weeks. Their administration was prolonged during the 30 days of the behavioral assessment.
A battery of sensorimotor tests was performed following the procedure described by Rueda N et al. [Neurosci Leu (2008) 433(1):22-27]. In the visual placing reflex test, cerebellar and vestibular functions were evaluated. […] The response of forepaw extension was scored on a 0-4 scale [4: animal extends the forepaws when placed at the highest height; 3: forepaws extended before touching the surface with vibrissae; 2: forepaws extended after vibrissae touched the surface; 1: forepaws extended after the nose touched the surface; 0: no extension].
To evaluate auditory sensitivity, the startle response to a sudden auditory stimulus was measured. Mice were placed facing the wall of an unfamiliar cage and the auditory stimulus was generated by clapping together two stainless steel forceps (7 cm long). A score (0-3 points) was assigned based on the magnitude of the response: jumping more than 1 cm (3 points); jumping less than 1 cm (2 points); retracting of the ears (Preyer reflex, 1 point); or no response (0 points).
The vibrissa placing reflex was analyzed by noting the reflective reaction to touching the vibrissae with a cotton stick. In three consecutive trials, a score of 1 was assigned to animals that touched the stimulated vibrissae with an ipsilateral paw, and 0 if there was no response. Grip strength was assessed by quantifying the resistance to being separated from a lid of aluminum bars (2 mm), when dragged by the tail (0: no resistance, total loss of grip strength; 1: slight; 2: moderate; 3: active; 4: extremely active resistance, normal grip strength).
In order to evaluate equilibrium, four 20-s trials of balance were performed on an elevated (40 cm high), horizontal (50 cm long) rod. Trials 1 and 2 were performed on a flat wooden rod (9 mm wide); trials 3 and 4 were performed on a cylindrical aluminum rod (1 cm diameter). In each trial, the animals were placed in a marked central zone (10 cm) on the elevated rod. A score of 0 was given if the animal fell within 20 s, 1 if it stayed within the central zone for >20 s, 2 if it left the central zone, and 3 if it reached one of the ends of the bar.
Prehensile reflex (three 5-s trials) was measured as the ability of the animal to remain suspended by the forepaws by grasping an elevated horizontal wire (2 mm in diameter). The maximum possible score of 3 was achieved when the animal remained suspended by the forepaws in all three trials (one point per trial). Traction capacity was scored at the same time by assessing the number of hind limbs that the animal raised to reach the wire (0: none; 1: one limb; 2: two limbs).

[2] = tested on: Ts65Dn and control mice; assay: Spontaneous activity: actimetry; format: in vivo; conditions: 20 mg/kg p.o. chronic, vs vehicle
Description: as §1
In this test the circadian variation of the animals' spontaneous locomotor activity during a complete light-dark cycle of 24 hours was evaluated. The apparatus is a device (Acti-system II, Panlab, Barcelona) that detects the changes produced in a magnetic field by the movement of the mice. It registers the movements of animals during a continuous 24 hour cycle (12 hours of light and 12 hours of darkness).

[3] = target: human GABA A α1β2/3γ2 (Homo sapiens, UniProt P14867+P18507); assay: [3H]flumazenil competition binding, HEK293 cells expressing human α1β2/3γ2; design: expressed in transfected cells; host or cells: HEK293; conditions: for Ki: [3H]flumazenil competition, human α1β2/3γ2, read-out: hKi α1; for hKi α1/hKi α5: binding selectivity ratio
[4] = target: T1, human GABA A α2β3γ2 (Homo sapiens, UniProt P18507+P47869); assay: [3H]flumazenil competition binding, HEK293 cells expressing human α2β3γ2; design: expressed in transfected cells; host or cells: HEK293; conditions: for hKi α2/hKi α5: binding selectivity ratio
[5] = target: T1, human GABA A α2β3γ2; assay: Two-microelectrode voltage clamp, modulation of GABA EC10 response in Xenopus oocytes, α2β3γ2; format: cell-based; design: expressed in transfected cells; host or cells: Xenopus laevis oocytes; conditions: % change of EC10 GABA response at 3 μM or at 30×Ki if Ki below 0.1 μM
Description: (§2) Table 2b. […] Effect at human GABA A α5 receptors: % change of a submaximal (EC10) response to GABA determined at 30×Ki value from the flumazenil binding assay.
(§3) Subtype-selective effects were determined on cloned receptors expressed in Xenopus oocytes. Human recombinant GABA A receptors were expressed in Xenopus laevis oocytes. Current responses were evoked in two-microelectrode voltage-clamp condition by applying an EC10 of GABA before and during the co-application of the test compound. Response amplitudes in the presence of the test compound are expressed as percentage of the amplitudes before drug addition.

[6] = target: human GABA A α3β3γ2 (Homo sapiens, UniProt P18507+P34903); assay: Two-microelectrode voltage clamp, modulation of GABA EC10 response in Xenopus oocytes, α3β3γ2; format: cell-based; design: expressed in transfected cells; host or cells: Xenopus laevis oocytes; conditions: % change of EC10 GABA response at 3 μM or at 30×Ki if Ki below 0.1 μM
Description: as §2, §3

Compound | Latency arrival coat hanging ([1]; Ts65Dn mice) | Latency to fall aluminium bar ([1]; Ts65Dn mice) | Latency to fall wooden bar ([1]; Ts65Dn mice) | Number of crossings coat hanging ([1]; Ts65Dn mice) | Auditory startle ([1]; Ts65Dn mice) | Equilibrium aluminium bar ([1]; Ts65Dn mice) | Equilibrium wooden bar ([1]; Ts65Dn mice) | Grip strength ([1]; Ts65Dn mice) | Prehensile reflex ([1]; Ts65Dn mice) | Righting reflex ([1]; Ts65Dn mice) | Traction capacity ([1]; Ts65Dn mice) | Vision ([1]; Ts65Dn mice) | effect on sensorimotor abilities [1] | Latency arrival coat hanging ([1]; control mice) | Latency to fall aluminium bar ([1]; control mice) | Latency to fall wooden bar ([1]; control mice) | Number of crossings coat hanging ([1]; control mice) | Auditory startle ([1]; control mice) | Equilibrium aluminium bar ([1]; control mice) | Equilibrium wooden bar ([1]; control mice) | further results
FC(F)c1ncn2c1Cn1ncnc1-c1cc(Br)ccc1-2 [Compound 8581, 3-Bromo-10-difluoromethyl-9H-imidazo[1,5-a][1,2,4]triazolo[1,5-d][1,4]benzodiazepine] | 35.44 | 12.11 | 17.77 | 3.33 | 1.33 | 1.00 | 3.55 | 2.00 | 2.67 | 3.00 | 1.67 | 7.67 | did not modify any of the sensorimotor abilities tested | 46.45 | 14.73 | 20.00 | 2.64 | 1.00 | 1.36 | 2.8 | Grip strength ([1]; control mice): 1.55; Prehensile reflex ([1]; control mice): 2.45; Righting reflex ([1]; control mice): 3.00; Traction capacity ([1]; control mice): 1.82; Vision ([1]; control mice): 7.64; spontaneous activity in home cage, dark or light phase [2]: did not differ in the amount of spontaneous activity; Ki [3]: 174 nM; hKi α1/hKi α5 [3]: 38; Ki ([4]; [3H]flumazenil competition, human α2β3γ2, read-out: hKi α2): 185 nM; hKi α2/hKi α5 [4]: 40; Efficacy GABA A α2β3γ2 [5]: −11%; Efficacy GABA A α3β3γ2 [6]: −1%
Cc1onc(-c2ccc(F)cc2)c1COc1ccc(C(=O)N2CCS(=O)(=O)CC2)cn1 [Compound R1, (1,1-Dioxo-1,6-thiomorpholin-4-yl)-{6-[3-(4-fluoro-phenyl)-5-methyl-isoxazol-4-ylmethoxy]-pyridin-3-yl}-methanone] | 37.37 | 13.71 | 20.00 | 3.19 | 1.31 | 1.13 | 3.19 | 1.75 | 2.75 | 3.00 | 2.50 | 9.19 | did not modify any of the sensorimotor abilities tested | 30.93 | 11.16 | 20.00 | 2.73 | 1.00 | 0.80 | 2.53 | Grip strength ([1]; control mice): 2.2; Prehensile reflex ([1]; control mice): 2.53; Righting reflex ([1]; control mice): 3.00; Traction capacity ([1]; control mice): 1.80; Vision ([1]; control mice): 8.40; spontaneous activity in home cage, dark or light phase [2]: did not differ in the amount of spontaneous activity; Ki [3]: 985 nM; hKi α1/hKi α5 [3]: 209; Ki [4]: 502 nM; hKi α2/hKi α5 [4]: 107; Efficacy GABA A α2β3γ2 [5]: −6%; Efficacy GABA A α3β3γ2 [6]: −2%
